One may read the IC50 as the concentration at which inhibition is half-maximal.

The values below come from ChEMBL document CHEMBL6177966, “Sclerotiorin-Type Azaphilones Isolated from a Marine-Derived Fungus Microsphaeropsis arundinis P1B” (J Nat Prod, 2025).

SMILES strings stand for the structures. The source made the active and inactive calls. The calls are words filed in the database; no cut-off is given here.

Data set [1] deals with RAW264.7. Kind of data set: Cytotoxicity against mouse RAW264.7 cells assessed as cell viability at 20 to 40 uM incubated for 24 hrs by CCK8 assay. The class given is toxicity, cell-based. The conditions noted are these: raw264.7, 24 h, dose 20-40 µM.
Data set [2] relates to RAW264.7. Kind of data set: Anti-inflammatory activity in LPS-induced mouse RAW264.7 cells assessed as inhibition of NO production incubated for 24 hrs by Griess reagent based microplate reader analysis. The class given is functional, cell-based. The settings on record: RAW264.7, 24 h. In general terms: The Griess reaction detects nitrite, a stable product of nitric oxide.

The test system of data set [3] is RAW264.7. The data set is described as follows: Anti-inflammatory activity in LPS-induced mouse RAW264.7 cells assessed as reduction in iNOS level pre-incubated with compound for 1 hr followed by LPS induction and measured after 6 hrs by Western blot analysis. The data set is classed as functional, cell-based. The conditions noted are these: dose 5-40 µM.
In data set [4] the test system is RAW264.7. Kind of data set: Anti-inflammatory activity in LPS-induced mouse RAW264.7 cells assessed as reduction in COX-2 level pre-incubated with compound for 1 hr followed by LPS induction and measured after 6 hrs by Western blot analysis. The data set is classed as functional, cell-based. The conditions noted are these: dose 5-40 µM.
Data set [5] has as its system RAW264.7. Kind of data set: Anti-inflammatory activity in LPS-induced mouse RAW264.7 cells assessed as downregulation of iNOS mRNA transcription at 10 to 40 uM pre-incubated with compound for 1 hr followed by LPS induction and measured after 6 hrs by qRT-PCR analysis. The conditions noted are these: dose 10-40 µM. The data set is classed as functional, cell-based.
For data set [6], the system named is RAW264.7. Kind of data set: Anti-inflammatory activity in LPS-induced mouse RAW264.7 cells assessed as downregulation of TNF-alpha mRNA transcription at 10 to 40 uM pre-incubated with compound for 1 hr followed by LPS induction and measured after 6 hrs by qRT-PCR analysis. The conditions noted are these: dose 10-40 µM. The data set is classed as functional, cell-based. In general terms: Quantitative PCR measures a nucleic acid by following its amplification.

Data set [7] has as its system RAW264.7. The data set is described as follows: Anti-inflammatory activity in LPS-induced mouse RAW264.7 cells assessed as downregulation of IL-6 mRNA transcription at 10 to 40 uM pre-incubated with compound for 1 hr followed by LPS induction and measured after 6 hrs by qRT-PCR analysis. The class given is functional, cell-based. The settings on record: dose 10-40 µM.

Data set [8] relates to RAW264.7. Kind of data set: Inhibition of MAPK signalling pathway in LPS-induced mouse RAW264.7 cells assessed as downregulation of ERK1/2 phosphorylation pre-incubated with compound for 1 hr followed by LPS induction and measured after 10 mins by Western blot analysis. The class given is cell-based. The conditions noted are these: dose 5-40 µM. (In general: Immunoblotting shows a protein as a band on a membrane.)

Data set [9] concerns RAW264.7. Kind of data set: Effect on P38 phosphorylation in LPS-induced mouse RAW264.7 cells at 5 to 40 uM pre-incubated with compound for 1 hr followed by LPS induction and measured after 10 mins by Western blot analysis. The data set is classed as functional, cell-based. The conditions noted are these: dose 5-40 µM.
Data set [10] relates to RAW264.7. The data set is described as follows: Effect on JNK phosphorylation in LPS-induced mouse RAW264.7 cells at 5 to 40 uM pre-incubated with compound for 1 hr followed by LPS induction and measured after 10 mins by Western blot analysis. The class given is functional, cell-based. The settings on record: dose 5-40 µM.
Data set [11] has as its system RAW264.7. Kind of data set: Anti-inflammatory activity in LPS-induced mouse RAW264.7 cells assessed as inhibition of NO production. The data set is classed as functional, cell-based.

For the molecule `C[C@H]1CCO[C@@H]1[C@@](C)(O)/C=C/C1=CC2=CC(=O)[C@](C)(O)[C@@H](O)[C@@H]2CO1`, the Activity result in the data set with RAW264.7 [1] is recorded as “Non-toxic”.
Regarding `C[C@H]1CCO[C@@H]1[C@](C)(O)/C=C/C1=CC2=CC(=O)[C@](C)(O)[C@@H](O)[C@@H]2CO1`, in the data set with RAW264.7 [1], the Activity result is reported as “Non-toxic”.
Still for that read-out and setting: in the case of `C[C@H]1CC(=O)O[C@@H]1[C@@](C)(O)/C=C/C1=CC2=CC(=O)[C@](C)(O)[C@@H](O)C2=CO1` it was “Non-toxic”.
`C[C@H]1CC(=O)O[C@@H]1[C@](C)(O)/C=C/C1=CC2=CC(=O)[C@](C)(O)[C@@H](O)[C@@H]2CO1`: the IC50 with RAW264.7 [2] was 16.7 µM. Besides, the Activity result with RAW264.7 [1] is “Non-toxic”; in the data set with RAW264.7 [3] it was “Dose-dependent-effect”; in the data set with RAW264.7 [4], “Dose-dependent-effect”. Also, the outcome with RAW264.7 [5], in the data set with RAW264.7 [6] and in the data set with RAW264.7 [7] was Active. For the same molecule, the inhibition result with RAW264.7 [8] was “Dose-dependent-effect”. In addition, the outcome in the data set on RAW264.7 [9] and in the data set with RAW264.7 [10] was inactive.
`C[C@H]1CC(=O)O[C@@H]1[C@@](C)(O)/C=C/C1=CC2=CC(=O)[C@](C)(O)[C@@H](O)[C@@H]2CO1`: the Activity result in the data set with RAW264.7 [1] is “Non-toxic”.
Consider `C[C@H]1CCO[C@@H]1[C@](C)(O)/C=C/C1=CC2=CC(=O)[C@](C)(O)[C@@H](O)[C@]2(O)CO1`, for which the Activity entry in the data set with RAW264.7 [1] is “Non-toxic”.
As to `C[C@H]1CC(=O)O[C@@H]1[C@](C)(O)/C=C/C1=CC2=CC(=O)[C@](C)(O)[C@@H](O)C2=CO1`, the Activity entry in the data set on RAW264.7 [1] is reported as “Non-toxic”.
On to `C[C@H]1CC(=O)O[C@@H]1[C@@](C)(O)/C=C/C1=CC2=CC(=O)[C@](C)(O)[C@@H](O)[C@H]2CO1`, for which the Activity entry in the data set with RAW264.7 [1] is on record as “Non-toxic”.
Turning to `C[C@H]1CC(=O)O[C@@H]1[C@@](C)(O)/C=C/C1=CC2=C(Cl)C(=O)[C@](C)(O)[C@H](O)[C@@H]2CO1`, the Activity result with RAW264.7 [1] is “Non-toxic”.
Take `C[C@H]1CC(=O)O[C@@H]1[C@](C)(O)/C=C/C1=CC2=C(Cl)C(=O)[C@](C)(O)[C@H](O)[C@@H]2CO1`: the Activity entry in the data set with RAW264.7 [1] is given as “Non-toxic”.
Same read-out and setting: in the case of `C[C@H]1CCO[C@@H]1[C@@](C)(O)/C=C/C1=CC2=CC(=O)[C@](C)(O)[C@@H](O)[C@]2(O)CO1` it was “Non-toxic”.
For `O=c1c(O)c(-c2ccc(O)c(O)c2)oc2cc(O)cc(O)c12` [QUERCETIN], the IC50 in the data set on RAW264.7 [11] was 15.3 µM.
As for `C[C@H]1CC(=O)O[C@@H]1[C@](C)(O)/C=C/C1=CC2=CC(=O)[C@](C)(O)[C@@H](O)[C@H]2CO1`, the Activity result with RAW264.7 [1] is “Non-toxic”.
